The source of these data is publication PMC8086025, “A benzopyran with antiarrhythmic activity is an inhibitor of Kir3.1-containing potassium channels” (The Journal of Biological Chemistry, 2021).

Where “and” joins values, the source holds several entries; their conditions need not be identical. Identical values can stand only once. Entries after “also recorded” stand apart in the source; their conditions may differ.

Data set [1] has as its target T1, Neurokinin NK1 (Homo sapiens, UniProt P25103).
T1 construct: endogenous in cells; host or cells: U373MG uppsala
Nature of the data set: Radioligand binding, [125I]-Substance P LYS3, U373MG uppsala. The note with it: read-out: % Specific Binding at 10 µM.

Data set [2] has as its target T2, Dopamine transporter (Homo sapiens, UniProt Q01959).
T2 construct: expressed in transfected cells; host or cells: CHO cells
The experiment in a line: Radioligand binding, [3H]BTCP.

Data set [3] deals with Kir6.1/SUR2B (Homo sapiens, UniProt O60706+Q15842). The experiment in a line: Cloned cardiac ion channel electrophysiology, Kir6.1/SUR2B. It is filed as cell-based. As to the method:
page 24: APPENDIX 4- EQUATIONS %Inhibition = (1 - IIntervention/IControl) × 100 Equation 1 - Percentage Inhibition Inhibition of current (or leak-subtracted current) was calculated from steady-state current recorded in the absence (IControl) and presence of test-article (IIntervention). […]

The target of data set [4] is Kir3.1(T143A)/4 (Homo sapiens, UniProt P48544+P48549, T143A). It is filed as cell-based. The note with it: 1 μM, TEVC.
Data set [5] can be described thus: Plasma protein binding, human. It is filed as in vitro ADME. The note with it: read-out: Human PPB (converted).
In data set [6] the target is T3, Kir3.4/4(S143F) channel mutant (Homo sapiens, UniProt P48544, S143F).
T3 construct: expressed in transfected cells; host or cells: Xenopus laevis oocytes (cRNA injection)
Nature of the data set: TEVC in Xenopus oocytes, Kir3.4/4(S143F). The data set is classed as cell-based. The note with it: read-out: IC50, inhibition of Kir3.4/4(S143F).

For data set [7], the target named is T4, Kir3.4/4(S143F) with E147A in the Kir3.4(S143F) subunit (Homo sapiens, UniProt P48544, E147A/S143F).
T4 construct: expressed in transfected cells; host or cells: Xenopus laevis oocytes (cRNA injection)
Nature of the data set: TEVC in Xenopus oocytes, E147A mutant in the Kir3.4(S143F) subunit. The data set is classed as cell-based. The note with it: 1 μM. As to the method: (§1) X. laevis oocytes were isolated and microinjected as previously described ([6]). Human Kir3.1, mouse Kir3.2, and human Kir3.4 DNA constructs were used for electrophysiology experiments. All cRNA constructs were injected in the amount of 2 ng per oocyte. Injected oocytes were incubated for 2 to 3 days at 18 °C to allow for expression. Whole-cell oocyte currents were then measured using a GeneClamp 500 amplifier (Axon Instruments). Microelectrodes had resistances of 0.5 to 1 megohm using a 3M KCl solution in 1.4% agarose. Oocytes were perfused with a low K^+ (LK) solution ND96 (2 mM KCl, 96 mM NaCl, 1 mM MgCl2, 1.8 mM CaCl2, 5 mM HEPES-Na) to establish a baseline for the recordings. Basal current was measured in a high potassium (HK) solution ND96K (96 mM KCl, 10 mM HEPES-K, 1 mM MgCl2, 1.8 mM CaCl2). To block the current, the oocyte chamber was perfused with 4 mM BaCl2 in ND96K. Only the Barium-sensitive current was used for statistical analysis. To measure the inhibitory activity of the channels, 1 μM BP-G1 in ND96K (HK) was used. Typically, oocytes were held at 0 mV (EK) and the current was monitored constantly using a ramp protocol with a command potential from −80 to +80 mV. Current amplitude was measured at the end of a 1 s sweep. All currents were analyzed when they reached steady state. Error bars in the figures represent SD (N > 4).

The target in data set [8] is T5, Kir3.4/4(S143F, N179D) (Homo sapiens, UniProt P48544, N179D/S143F).
T5 construct: expressed in transfected cells; host or cells: Xenopus laevis oocytes (cRNA injection)
The experiment in a line: TEVC in Xenopus oocytes, Kir3.4/4(S143F, N179D). The note with it: read-out: less inhibition of Kir3.4/4(S143F, N179D) than of Kir3.4/4(S143F). It is filed as cell-based. As to the method:
as §1

In data set [9] the target is T6, Kir3.1/2 channel (UniProt P48542+P48549).
T6 sequence (P48549 1-501): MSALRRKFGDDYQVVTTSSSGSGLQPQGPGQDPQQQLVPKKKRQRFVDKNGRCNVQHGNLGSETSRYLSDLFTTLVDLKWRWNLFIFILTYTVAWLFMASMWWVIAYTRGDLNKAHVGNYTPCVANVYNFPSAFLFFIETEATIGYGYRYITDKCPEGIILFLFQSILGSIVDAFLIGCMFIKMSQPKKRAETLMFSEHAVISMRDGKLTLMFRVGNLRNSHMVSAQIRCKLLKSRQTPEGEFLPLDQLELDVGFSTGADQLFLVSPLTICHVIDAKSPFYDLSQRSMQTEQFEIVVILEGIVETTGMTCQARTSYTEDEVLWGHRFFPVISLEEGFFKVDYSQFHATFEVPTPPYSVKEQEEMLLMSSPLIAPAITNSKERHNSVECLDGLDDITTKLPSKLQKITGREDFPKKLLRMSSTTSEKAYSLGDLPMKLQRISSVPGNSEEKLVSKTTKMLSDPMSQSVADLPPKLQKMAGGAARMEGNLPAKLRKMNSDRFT
T6 sequence (P48542 1-425): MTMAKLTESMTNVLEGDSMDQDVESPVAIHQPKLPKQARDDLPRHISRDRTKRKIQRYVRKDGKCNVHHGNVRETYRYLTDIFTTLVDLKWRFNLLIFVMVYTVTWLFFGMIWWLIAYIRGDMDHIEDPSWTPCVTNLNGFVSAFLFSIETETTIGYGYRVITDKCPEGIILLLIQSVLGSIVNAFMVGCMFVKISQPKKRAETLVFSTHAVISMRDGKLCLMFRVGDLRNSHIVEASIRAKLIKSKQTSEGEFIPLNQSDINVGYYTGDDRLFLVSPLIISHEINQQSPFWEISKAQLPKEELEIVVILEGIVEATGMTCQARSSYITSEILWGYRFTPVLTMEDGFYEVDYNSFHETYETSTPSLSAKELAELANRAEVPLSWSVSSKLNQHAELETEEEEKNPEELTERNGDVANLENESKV
Nature of the data set: TEVC in Xenopus oocytes, Kir3.1/2. It is filed as cell-based, human Kir3.1, mouse Kir3.2. Details: expressed in transfected cells. The following applies: TEVC oocyte experiments; read-out: IC50, inhibition of Kir3.1/2. As to the method:
as §1

The target in data set [10] is T7, Kir3.1(D173A) mutant (Homo sapiens, UniProt P48544+P48549, D173A).
T7 construct: expressed in transfected cells; host or cells: Xenopus laevis oocytes (cRNA injection)
Nature of the data set: TEVC in Xenopus oocytes, Kir3.1(D173A)/4. The following applies: 1 μM. It is filed as cell-based. As to the method: as §1

Data set [11] concerns the target T8, wild-type Kir3.4 channel (Homo sapiens, UniProt P48544).
T8 construct: expressed in transfected cells; host or cells: Xenopus laevis oocytes (cRNA injection)
Nature of the data set: TEVC in Xenopus oocytes, wild-type Kir3.4. It is filed as cell-based. The following applies: 1 μM. As to the method: as §1

In data set [12] the target is T9, Kir6.2/SUR2A (Homo sapiens, UniProt O60706+Q14654).
T9 construct: Andrew Tinker, UCL; host or cells: HEK293
Nature of the data set: Cloned cardiac ion channel patch clamp, Kir6.2/SUR2A. The data set is classed as cell-based. Background: Patch clamp records ionic current or voltage across a cell membrane.

Data set [13] deals with T10, Kir3.4 (Homo sapiens, UniProt P48544).
T10 construct: expressed in transfected cells
Nature of the data set: Cloned cardiac ion channel patch clamp, Kir3.4. The data set is classed as cell-based.

In data set [14] the target is Kir3.4/4(N179D) channel mutant (Homo sapiens, UniProt P48544, N179D). It is filed as cell-based. The note with it: 1 μM, TEVC.
Chain of Kir3.4/4(N179D) channel mutant (P48544 whole entry, stated change not applied): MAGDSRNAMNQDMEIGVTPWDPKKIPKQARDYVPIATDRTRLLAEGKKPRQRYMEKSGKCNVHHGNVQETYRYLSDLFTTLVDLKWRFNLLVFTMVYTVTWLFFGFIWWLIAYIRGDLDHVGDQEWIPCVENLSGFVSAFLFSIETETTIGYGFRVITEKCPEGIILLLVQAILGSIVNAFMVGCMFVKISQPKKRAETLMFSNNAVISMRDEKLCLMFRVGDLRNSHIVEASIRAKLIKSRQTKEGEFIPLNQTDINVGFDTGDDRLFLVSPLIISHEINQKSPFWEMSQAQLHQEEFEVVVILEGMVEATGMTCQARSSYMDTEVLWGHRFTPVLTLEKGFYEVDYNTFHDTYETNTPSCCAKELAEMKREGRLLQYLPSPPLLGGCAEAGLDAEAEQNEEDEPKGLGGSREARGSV
Chain of Kir3.4/4(N179D) channel mutant (P48544 whole entry N179D): as the sequence (P48544 whole entry, stated change not applied) above, with N179D counted along it

T2 sequence (Q01959 whole entry): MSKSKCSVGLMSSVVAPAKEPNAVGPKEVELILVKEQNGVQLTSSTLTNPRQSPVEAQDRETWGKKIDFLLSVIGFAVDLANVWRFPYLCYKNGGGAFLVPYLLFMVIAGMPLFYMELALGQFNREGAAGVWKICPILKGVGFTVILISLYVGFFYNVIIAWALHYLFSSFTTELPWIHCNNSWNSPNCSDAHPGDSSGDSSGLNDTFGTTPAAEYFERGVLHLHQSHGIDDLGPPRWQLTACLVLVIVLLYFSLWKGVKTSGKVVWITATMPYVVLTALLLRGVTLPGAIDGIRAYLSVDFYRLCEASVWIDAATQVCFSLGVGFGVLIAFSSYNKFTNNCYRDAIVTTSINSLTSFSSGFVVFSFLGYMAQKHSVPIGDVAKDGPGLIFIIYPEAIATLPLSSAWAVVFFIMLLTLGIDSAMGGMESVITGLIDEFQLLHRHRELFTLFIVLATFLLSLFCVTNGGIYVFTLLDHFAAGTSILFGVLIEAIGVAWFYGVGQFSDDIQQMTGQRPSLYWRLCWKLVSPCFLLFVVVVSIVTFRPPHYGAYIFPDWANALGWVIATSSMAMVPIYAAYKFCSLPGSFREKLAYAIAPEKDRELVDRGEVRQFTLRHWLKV
T8 sequence (P48544 whole entry): as the sequence (P48544 whole entry, stated change not applied) above
Chain of Kir6.1/SUR2B (Q15842 whole entry): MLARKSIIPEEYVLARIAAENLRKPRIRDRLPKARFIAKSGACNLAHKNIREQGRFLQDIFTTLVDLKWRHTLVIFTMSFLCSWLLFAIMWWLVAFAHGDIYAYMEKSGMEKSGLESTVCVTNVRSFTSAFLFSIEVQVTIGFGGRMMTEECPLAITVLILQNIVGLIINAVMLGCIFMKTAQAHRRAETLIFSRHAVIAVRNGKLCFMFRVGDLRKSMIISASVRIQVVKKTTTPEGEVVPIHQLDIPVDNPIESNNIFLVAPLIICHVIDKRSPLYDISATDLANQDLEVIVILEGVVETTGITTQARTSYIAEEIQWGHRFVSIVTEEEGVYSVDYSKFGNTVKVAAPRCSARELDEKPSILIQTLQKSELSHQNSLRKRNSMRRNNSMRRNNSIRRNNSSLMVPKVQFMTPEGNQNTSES
Chain of Kir6.1/SUR2B (O60706 1-1549 isoform O60706-2): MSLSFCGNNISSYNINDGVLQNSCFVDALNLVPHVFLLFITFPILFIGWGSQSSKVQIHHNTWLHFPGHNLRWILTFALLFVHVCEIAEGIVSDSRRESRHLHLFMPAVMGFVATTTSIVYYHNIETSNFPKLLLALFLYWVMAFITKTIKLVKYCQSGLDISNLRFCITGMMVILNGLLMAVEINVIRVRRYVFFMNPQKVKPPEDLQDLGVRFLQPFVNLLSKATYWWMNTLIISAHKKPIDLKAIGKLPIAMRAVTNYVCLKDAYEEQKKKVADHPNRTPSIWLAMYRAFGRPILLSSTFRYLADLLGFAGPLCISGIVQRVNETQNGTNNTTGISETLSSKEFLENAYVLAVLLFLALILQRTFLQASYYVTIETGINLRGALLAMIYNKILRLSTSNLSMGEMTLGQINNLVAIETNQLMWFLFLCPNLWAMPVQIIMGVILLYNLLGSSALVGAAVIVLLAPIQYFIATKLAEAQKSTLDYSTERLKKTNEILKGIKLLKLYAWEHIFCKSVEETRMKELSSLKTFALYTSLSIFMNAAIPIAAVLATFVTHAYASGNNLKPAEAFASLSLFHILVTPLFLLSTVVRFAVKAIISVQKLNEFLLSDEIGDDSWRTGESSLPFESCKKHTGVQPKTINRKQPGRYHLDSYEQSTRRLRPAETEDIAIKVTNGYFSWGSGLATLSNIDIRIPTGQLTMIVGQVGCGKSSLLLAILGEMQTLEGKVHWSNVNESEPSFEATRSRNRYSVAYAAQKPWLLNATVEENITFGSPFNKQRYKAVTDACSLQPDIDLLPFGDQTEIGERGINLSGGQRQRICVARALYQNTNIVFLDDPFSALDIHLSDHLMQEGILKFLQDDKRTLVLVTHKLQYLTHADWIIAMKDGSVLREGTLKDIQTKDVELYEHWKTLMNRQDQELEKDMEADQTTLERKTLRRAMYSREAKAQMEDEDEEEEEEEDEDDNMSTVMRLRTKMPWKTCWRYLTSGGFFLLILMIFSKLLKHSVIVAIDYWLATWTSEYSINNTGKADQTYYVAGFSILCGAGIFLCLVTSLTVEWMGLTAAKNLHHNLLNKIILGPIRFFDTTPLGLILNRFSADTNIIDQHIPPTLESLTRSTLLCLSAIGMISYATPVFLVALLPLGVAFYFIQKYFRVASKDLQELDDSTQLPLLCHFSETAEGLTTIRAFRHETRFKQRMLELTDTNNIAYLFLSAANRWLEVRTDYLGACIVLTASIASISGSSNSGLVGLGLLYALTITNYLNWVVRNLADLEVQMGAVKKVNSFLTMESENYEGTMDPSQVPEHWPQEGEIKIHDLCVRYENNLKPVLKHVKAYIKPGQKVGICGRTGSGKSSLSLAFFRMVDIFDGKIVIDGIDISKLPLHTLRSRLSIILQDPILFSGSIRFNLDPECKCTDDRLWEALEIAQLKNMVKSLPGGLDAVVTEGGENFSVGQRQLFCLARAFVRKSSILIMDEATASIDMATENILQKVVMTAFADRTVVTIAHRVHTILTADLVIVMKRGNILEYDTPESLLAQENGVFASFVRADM
T4 sequence (P48544 whole entry S143F/E147A): as the sequence (P48544 whole entry, stated change not applied) above, with S143F, E147A counted along it
T4 sequence (P48544 whole entry, stated change not applied): as the sequence (P48544 whole entry, stated change not applied) above
T10 sequence (P48544 whole entry): as the sequence (P48544 whole entry, stated change not applied) above
Chain of Kir3.1(T143A)/4 (P48544 whole entry): as the sequence (P48544 whole entry, stated change not applied) above
Chain of Kir3.1(T143A)/4 (P48549 whole entry T143A): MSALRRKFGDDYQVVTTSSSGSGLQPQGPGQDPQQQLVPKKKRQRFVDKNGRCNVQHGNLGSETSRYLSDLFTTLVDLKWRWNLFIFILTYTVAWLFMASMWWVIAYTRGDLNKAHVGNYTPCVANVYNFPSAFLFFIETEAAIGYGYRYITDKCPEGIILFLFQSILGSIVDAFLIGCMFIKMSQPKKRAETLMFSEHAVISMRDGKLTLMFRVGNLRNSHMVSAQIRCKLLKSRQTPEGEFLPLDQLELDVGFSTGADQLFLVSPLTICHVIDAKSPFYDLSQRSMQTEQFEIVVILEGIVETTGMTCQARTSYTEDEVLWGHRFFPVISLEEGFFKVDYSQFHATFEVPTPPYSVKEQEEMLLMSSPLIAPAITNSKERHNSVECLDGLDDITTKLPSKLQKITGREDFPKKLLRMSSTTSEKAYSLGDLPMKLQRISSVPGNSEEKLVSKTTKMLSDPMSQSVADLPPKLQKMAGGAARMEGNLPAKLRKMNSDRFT
T7 sequence (P48549 whole entry D173A): as the sequence (P48549 whole entry T143A) above, with A143T, D173A counted along it
T7 sequence (P48544 whole entry): as the sequence (P48544 whole entry, stated change not applied) above
T3 sequence (P48544 whole entry S143F): as the sequence (P48544 whole entry, stated change not applied) above, with S143F counted along it
T3 sequence (P48544 whole entry, stated change not applied): as the sequence (P48544 whole entry, stated change not applied) above
T5 sequence (P48544 whole entry S143F/N179D): as the sequence (P48544 whole entry, stated change not applied) above, with S143F, N179D counted along it
T5 sequence (P48544 whole entry, stated change not applied): as the sequence (P48544 whole entry, stated change not applied) above
T1 sequence (P25103 whole entry): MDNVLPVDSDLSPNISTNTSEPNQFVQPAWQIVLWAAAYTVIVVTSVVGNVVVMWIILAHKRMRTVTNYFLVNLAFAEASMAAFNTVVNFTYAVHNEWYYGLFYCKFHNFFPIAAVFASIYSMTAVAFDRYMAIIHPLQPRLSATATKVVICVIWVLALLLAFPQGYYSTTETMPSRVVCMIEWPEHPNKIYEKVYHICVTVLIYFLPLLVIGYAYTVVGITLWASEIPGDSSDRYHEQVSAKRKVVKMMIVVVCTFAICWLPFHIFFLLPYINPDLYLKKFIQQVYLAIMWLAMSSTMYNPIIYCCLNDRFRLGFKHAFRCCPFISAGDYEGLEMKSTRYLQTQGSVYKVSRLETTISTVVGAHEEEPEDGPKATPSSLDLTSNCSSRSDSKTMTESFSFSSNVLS

Consider `Cc1cc(CO)nc2cc3c(cc12)OC(C)(C)[C@H](O)[C@H]3NCCc1ccccc1` [BP-G1, (3R,4S)-7-(hydroxymethyl)-2,2,9-trimethyl-4-(2-phenylethylamino)-3,4-dihydropyrano[2,3-g]quinolin-3-ol], for which the inhibition at 10 µM in data set [1] is 42.6%; in data set [2] (10 µM, read-out: % Specific Binding at 10 µM) it was 91.2%. In addition, the IC50 in data set [2] was 1000 nM; in data set [3] it was 9900 nM; in [6] it was 62.1 nM; in data set [9], 55.9 nM and 55 nM; in [12], over 10000 nM; in data set [13], 19800 nM. The molecule also displayed a Ki in [2] of 550 nM. Also, the “nH, Dopamine transporter (h)” value in [2] was determined as 1. In addition, the “% Specific Binding at 10 µM” value in data set [2] (10 µM) is 91.2%. In data set [4], the “block of Kir3.1(T143A)/4” value is reported as “no significant reduction in BP-G1 block”. The fraction unbound in data set [5] is 0.03. Further, the “block of Kir3.4/4(S143F) carrying E147A” value in data set [7] is listed as “abolished block”. Also, in [8], the inhibition at 1 µM was 20%. The “current block, Kir3.1(D173A)” value in data set [10] is about 25%. The “inhibition of wild-type Kir3.4” value in data set [11] was “did not inhibit; also recorded: showed no block”. In addition, the “inhibition of Kir3.4/4(N179D)” value in [14] is “did not inhibit”.

As usually defined, the Ki is a measure of affinity in units of concentration, obtained from inhibition or displacement.
